Reference: EP1641803B1, “THIENOPYRIMIDINE DERIVATIVES AS POTASSIUM CHANNEL INHIBITORS” (Xention Limited, priority 2003, dated 2004)

Experiments:
human Kv1.5 = target: T1, human Kv1.5 (Homo sapiens, UniProt P22460); experiment: Kv1.5 Rb+ Efflux Assay; assay type: cell-based; conditions: inhibition of 86Rb+ efflux through Kv1.5; cells stably transfected with human Kv1.5; 10 point concentration response curves n=2; normalised to 2.5mM 4 amino-pyridine block
T1 construct: expressed in transfected cells
Method: The pore of a potassium channel is permeable to other monovalent cations such as Rb^+ and Tl^+. Analysis of cellular efflux of potassium channel permeable ions enables potassium channel activity to be monitored directly. Cells stably transfected with cDNA for human Kv1.5 (in pEF6::VA-His-TOPO) were grown in Dulbecco's Modified Eagle media (DMEM) alpha supplemented with 10% Fetal Calf Serum (FCS), 20 µl/ml penicillin (5000U/ml) streptomycin (5000µg/ml), 10µl/ml [100x] glutamine, and blasticidin (7.5µg/ml). Cells were dispensed into 96 well cellstar TC plates and allowed to grow until a confluent monolayer was visible. On the morning of the assay run, cold media was aspirated using the TECAN plate washer, and a 50µl media spike containing 2µCi/ml (37kBq/ml) ^86Rb^+ added to each well containing cells using the Shallow-Well Matrix Platemate. Plates were placed in a incubator at 37°C for a minimum of 3 hours. Unloaded ^86Rb^+ in the "hot" media was aspirated and each well washed 4x250µl with Earls Balanced Salt Solution (EBSS) which contained 5mM KCl, 140mM NaCl, 2mM CaCl2, 1mM MgSO4, 10mM HEPES, and 5mM glucose, pH 7.4, 290-300 mOsm. These cells were then pre-incubated with 50µl of EBSS +/- test compounds for 10 minutes at room temperature. After the 10 minute incubation, 50µl of modified EBSS which contained 145mM KCl, 2mM CaCl2, 1mM MgSO4, 10mM HEPES, 5mM glucose, pH 7.4, 290-300 mOsm, was added, and the cells were incubated for a further 10 minutes at room temperature. The high KCl EBSS was used to depolarise cells to a membrane potential that would activate Kv1.5 channels. After the final incubation 80µl/100µl of the reaction from each well was transferred to equivalent wells in a Packard "Optiplate" white 96 well plate and counted in a Packard TopCount liquid scintillation counter by Cerenkov emission. Percentage inhibition ^86Rb^+ efflux through Kv1.5 was calculated by normalisation to 2.5mM 4 amino-pyridine control block of Kv1.5. Alternatively cells were loaded with ^85Rb^+ and quantified by atomic absorption spectroscopy. IC50 determinations were derived from 10 point concentration response curves n=2 using the method described above. Data was fitted as variable slope sigmoidal fit using Graphpad Prism (V3.02) software.

hKv1.5 = hKv1.5 (Homo sapiens, UniProt P22460); experiment: Kv1.5 Autopatch Electrophysiology (whole cell patch-clamp); assay type: cell-based; conditions: compound at 1µM, room temperature (22-24°C), held at -80mV, step to 0mV for 1000ms, total charge measured
Method: The external bathing solution contained (in mM): 150 NaCl, 10 KCl, […], 3 MgCl2, 1 CaCl2, 10 HEPES, pH 7.4. Patch pipettes were filled with an electrode solution of composition (in mM): 160 KCl, 0.5 MgCl2, 10 HEPES, 1 EGTA, pH 7.4 with KOH.
Compounds were dissolved in DMSO (100 %) and made up in the external bather at a concentration of 1µM. All experiments were conducted at room temperature (22-24°C).
A cell suspension (10 ml), with a density of 100,000 cells/ml, was aliquoted into a 15ml centrifuge tube and transferred to an incubator (37°C, 5% CO2) for approximately one hour before use. Following 60 min incubation, a tube was taken and centrifuged at 1000 rpm for 4 mins at room temperature. 9.5 ml supernatant was thence discarded, leaving a cell pellet at the bottom of the tube. The pellet was then resuspended using 100 µl of cold (4 °C), filtered (0.22 µm), 0.2 % BSA/bather solution (0.02g BSA/10ml bather). The bottom of the tube was manually agitated gently until the solution became cloudy with cells. The 100 µl cell resuspension solution was then stored on the bench at 4 °C (using a Peltier-based temperature control device) until used.
A length of capillary glass (1B150F-4, WPI) was dipped into the cell suspension solution, such that - 3 cm column of fluid was taken up by capillary action. A Ag/AgCl wire was dropped into the non-dipped end of the capillary also. The outside of the solution-filled end of the capillary was then dried and the capillary was loaded into the AutoPatch™. Borosilicate glass patch pipettes (from 1.5mm OD, thin-walled filamented, GC150-TF capillary glass, Harvard) were pulled using a DMZ pipette puller (Zeitz Instruments), and were back-filled using the internal pipette solution, being careful that no bubbles remain at the tip or in the body of the pipette. Patch pipettes typically had resistances of 2.3-3.5 MΩ. Once filled, the pipette tip and a proportion of the shaft (- 15 mm) were dipped into Sigmacote (Sigma). The recording pipette was then loaded into the AutoPatch™.
Automated patch-clamping was initiated by the operator, but thereafter AutoPatch.exe continued the experiment providing that pre-set conditions and criteria were satisfied.
Whole cell patch-clamp recordings were made using the AutoPatch™ rig, which incorporated an EPC9 amplifier (HEKA, Germany) under control of Pulse software (v8.54, HEKA, Germany), a motion controller with 2 translators (Newport, UK), valve controller (VF1) and a c-level suction device all at room temperature (22-24°C). This equipment was completely under the control of AutoPatch.exe and operator intervention was only made when there was a requirement to refill the drug reservoirs or to prevent the loss of a cell due to a technical error. Cells with an Rseries greater than 18 MΩ were discounted from the experiment.
Qualification stages prior to perfusion and drug application ensured that the observed current met the criteria for the experiment. Only those cells with an IK > 500 pA were used for experiments. Cells were continuously perfused with external solution at a flow rate of 1.8-2 ml/minute. […] Online analysis of the hKv1.5 current during the application of compounds was performed by the AutoPatch™ software. Voltage-step protocols and analysis of data was performed as described for conventional electrophysiology.
Electrophysiology voltage-step protocols and analysis of data was performed as follows. Data was sampled at 5kHz, and filtered with a -3 dB bandwidth of 2.5kHz. Cells were held at a voltage of -80mV. Currents were evoked to a voltage step for 1000ms in duration at 0mV every 5s. Currents were analysed using Pulsefit software (v8.54, HEKA, Germany), with the total charge measured during the whole of the voltage step. All other plots were produced using Igor Pro (WaveMetrics).

T1 sequence (P22460 whole entry): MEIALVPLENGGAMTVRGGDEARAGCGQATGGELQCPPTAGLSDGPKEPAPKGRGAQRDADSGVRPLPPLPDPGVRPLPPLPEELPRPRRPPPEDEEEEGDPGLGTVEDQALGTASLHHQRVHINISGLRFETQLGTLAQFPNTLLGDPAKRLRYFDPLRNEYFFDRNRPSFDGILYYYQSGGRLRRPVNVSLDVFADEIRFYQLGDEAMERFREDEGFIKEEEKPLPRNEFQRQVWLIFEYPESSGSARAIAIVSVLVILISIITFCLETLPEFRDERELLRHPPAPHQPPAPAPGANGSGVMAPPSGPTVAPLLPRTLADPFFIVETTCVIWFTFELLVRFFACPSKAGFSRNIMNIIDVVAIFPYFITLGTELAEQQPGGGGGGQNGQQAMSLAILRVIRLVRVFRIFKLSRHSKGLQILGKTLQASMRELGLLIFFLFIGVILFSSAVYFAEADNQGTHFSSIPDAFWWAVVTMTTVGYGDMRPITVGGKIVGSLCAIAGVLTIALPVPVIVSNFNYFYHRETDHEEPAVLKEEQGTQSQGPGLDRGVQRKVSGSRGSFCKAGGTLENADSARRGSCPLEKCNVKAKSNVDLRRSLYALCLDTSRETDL
Sequence of hKv1.5 (P22460 whole entry): as above

IC50 (human Kv1.5) [µM]	inhibition at 1 µM (hKv1.5) [%]	% Inhibition at 1µM (hKv1.5) [%]	SMILES
0.07	21.9		c1ccc(-c2csc3ncnc(NCc4ccco4)c23)cc1 [Example 83, Furan-2-ylmethyl-(5-phenyl-thieno[2,3-d]pyrimidin-4-yl)-amine]
0.8	15.3		c1ccc(-c2csc3ncnc(NCC4CC4)c23)cc1 [Example 84, Cyclopropylmethyl-(5-phenyl-thieno[2,3-d]pyrimidin-4-yl)-amine]
4.21	24.2		c1ccc(-c2csc3ncnc(NCc4cccs4)c23)cc1 [Example 85, (5-Phenyl-thieno[2,3-d]pyrimidin-4-yl)-thiophen-2-ylmethyl-amine]
4.36	46		c1ccc(CNc2ncnc3scc(-c4ccccc4)c23)cc1 [Example 86, Benzyl-(5-phenyl-thieno[2,3-d]pyrimidin-4-yl)-amine]
5.14	3.4		C=CCNc1ncnc2scc(-c3ccccc3)c12 [Example 87, Allyl-(5-phenyl-thieno[2,3-d]pyrimidin-4-yl)-amine]
6.82	26.4		CN(Cc1ccco1)c1ncnc2scc(-c3ccccc3)c12 [Example 88, Furan-2-ylmethyl-methyl-(5-phenyl-thieno[2,3-d]pyrimidin-4-yl)-amine]
8.1		42.2	c1ccc(-c2csc3ncnc(NCC4CCCCC4)c23)cc1 [Example 89, Cyclohexylmethyl-(5-phenyl-thieno[2,3-d]pyrimidin-4-yl)-amine]
10.1			c1ccc(CCNc2ncnc3scc(-c4ccccc4)c23)cc1 [Example 90, Phenethyl-(5-phenyl-thieno[2,3-d]pyrimidin-4-yl)-amine]
> 30			c1ccc(-c2csc3ncnc(NC4CCCCC4)c23)cc1 [Example 91, Cyclohexyl-(5-phenyl-thieno[2,3-d]pyrimidin-4-yl)-amine]
1.91	27.6		c1coc(CNc2ncnc3scc(-c4cccs4)c23)c1 [Example 92, Furan-2-ylmethyl-(5-thiophen-2-yl-thieno[2,3-d]pyrimidin-4-yl)-amine]
> 30	44		O=[N+]([O-])c1ccc(CNc2ncnc3scc(-c4cccs4)c23)cc1 [Example 93, (4-Nitro-benzyl)-(5-thiophen-2-yl-thieno[2,3-d]pyrimidin-4-yl)-amine]
> 30	19.4		COc1cc(CNc2ncnc3scc(-c4cccs4)c23)cc(OC)c1OC [Example 94, (5-Thiophen-2-yl-thieno[2,3-d]pyrimidin-4-yl)-(3,4,5-trimethoxy-benzyl)-amine]
4.51	32.6		c1csc(-c2csc3ncnc(NCC4CC4)c23)c1 [Example 95, Cyclopropylmethyl-(5-thiophen-2-yl-thieno[2,3-d]pyrimidin-4-yl)-amine]
6.32	22.9		CC(C)CNc1ncnc2scc(-c3cccs3)c12 [Example 96, Isobutyl-(5-thiophen-2-yl-thieno[2,3-d]pyrimidin-4-yl)-amine]
6.53	43.3		c1ccc(CNc2ncnc3scc(-c4cccs4)c23)cc1 [Example 97, Benzyl-(5-thiophen-2-yl-thieno[2,3-d]pyrimidin-4-yl)-amine]
6.95		21.0	c1csc(CNc2ncnc3scc(-c4cccs4)c23)c1 [Example 98, Thiophen-2-ylmethyl-(5-thiophen-2-yl-thieno[2,3-d]pyrimidin-4-yl)-amine]
7.53	17.5		C=CCNc1ncnc2scc(-c3cccs3)c12 [Example 99, Allyl-(5-thiophen-2-yl-thieno[2,3-d]pyrimidin-4-yl)-amine]
9.71	19.9		CN(Cc1ccco1)c1ncnc2scc(-c3cccs3)c12 [Example 100, Furan-2-ylmethyl-methyl-(5-thiophen-2-yl-thieno[2,3-d]pyrimidin-4-yl)-amine]
> 30			CCN1CCCC1CNc1ncnc2scc(-c3ccccc3)c12 (stereo not shown) [Example 102, (1-Ethyl-pyrrolidin-2-ylmethyl)-(5-phenyl-thieno[2,3-d]pyrimidin-4-yl)-amine]
> 30			c1ccc(-c2csc3ncnc(NCCCn4ccnc4)c23)cc1 [Example 104, (3-Imidazol-1-yl-propyl)-(5-phenyl-thieno[2,3-d]pyrimidin-4-yl)-amine]
5.27			COCCNc1ncnc2scc(-c3ccccc3)c12 [Example 113, (2-Methoxy-ethyl)-(5-phenyl-thieno[2,3-d]pyrimidin-4-yl)-amine]
5.18			c1ccc(-c2csc3ncnc(NCC4CCCO4)c23)cc1 (stereo not shown) [Example 114, (5-Phenyl-thieno[2,3-d]pyrimidin-4-yl)-(tetrahydro-furan-2-ylmethyl)-amine]
6.16			c1ccc(-c2csc3ncnc(NCC4OCCO4)c23)cc1 [Example 116, [1,3]Dioxolan-2-ylmethyl-(5-phenyl-thieno[2,3-d]pyrimidin-4-yl)-amine]
0.05			Fc1ccc(-c2csc3ncnc(NCc4ccccn4)c23)cc1 [Example 123, [5-(4-Fluoro-phenyl)-thieno[2,3-d]pyrimidin-4-yl]-pyridin-2-ylmethyl-amine]
1.16			Fc1ccc(-c2csc3ncnc(NCc4ccco4)c23)cc1 [Example 124, [5-(4-Fluoro-phenyl)-thieno[2,3-d]pyrimidin-4-yl]-furan-2-ylmethyl-amine]
6.91			Cc1csc2ncnc(NCCc3ccc(Cl)cc3)c12 [Example 125, [2-(4-Chloro-phenyl)-ethyl]-(5-methyl-thieno[2,3-d]pyrimidin-4-yl)-amine]
8.05			Cc1ccc(-c2csc3ncnc(NCCc4ccccc4)c23)cc1 [Example 130, Phenethyl-(5-p-tolyl-thieno[2,3-d]pyrimidin-4-yl)-amine]
